Patent publication US8440590B2, “Method for controlling soybean rust” (priority 2006, dated 2013)

Tests used:
Assay type in all cases: in vivo
[1] = system: soybean cv. S-40-R9 (RR-soybean); assay: Crop tolerance test (germination after seed treatment), cv. S-40-R9
Protocol: (§1) Fifty soybean seeds of cv. S-40-R9 (RR-soybean) or cv. Williams (not GM) are sown 2 cm deep into trays filled with quarz sand. Seeds are treated prior to sowing with the formulated ais. The plants are grown at 20-23° C. in a greenhouse. If necessary, artificial lighting is supplied to give a 14 hr day.
(§2) Plant emergence 6 DAS and final stand 11 DAS is counted.

[2] = system: soybean cv. Williams (not GM); assay: Crop tolerance test (germination after seed treatment), cv. Williams
Protocol: as §1, §2

Phakopsora pachyrhizi [3] = assay: Test for rust activity, leaf discs from seed-treated plants, cv. Williams; settings: 11 DAI
Protocol: as §1
(§3) For the soybean rust assay, plants are transplanted 13 DAS into 8 cm pots filled with soil. 13 days after transplanting leaf discs are cut from the first and second true leaves and transferred to multiwell plates filled with water agar. 1 day later the leaf discs are inoculated with Phakopsora pachyrhizi. Assessment of the disease incidence is done 11 DAI (days after inoculation).

Phakopsora pachyrhizi [4] = assay: Test for rust activity, leaf discs from seed-treated plants, cv. S-40-R9; settings: 11 DAI
Protocol: as §1, §3

[5] = GA seed treatment 1 g ai/100 kg
[6] = GA seed treatment 2 g ai/100 kg
[7] = GA seed treatment 1 g ai/100 kg, cv. S-40-R9, fifty seeds sown
[8] = GA seed treatment 2 g ai/100 kg, cv. S-40-R9, fifty seeds sown
[9] = GA seed treatment 1 g ai/100 kg, cv. Williams, fifty seeds sown
[10] = GA seed treatment 2 g ai/100 kg, cv. Williams, fifty seeds sown

CC(C1CC1)C(O)(Cn1cncn1)c1ccc(Cl)cc1 (stereo not shown) [Cyproconazole (CCZ), cyproconazole]
Effect on plant numbers and size (phytotoxicity) ([1]; in vivo): severe reductions in plant numbers and size
Germination % Emergence 6 DAS ([1]; in vivo): 0%
Germination Count 6 DAS ([1]; in vivo): 0
Germination % Emergence 6 DAS ([2]; in vivo): 0%
Germination Count 6 DAS ([2]; in vivo): 0

C=C1C[C@]23C[C@@]1(O)CC[C@H]2[C@@]12C=C[C@H](O)[C@@](C)(C(=O)O1)[C@H]2[C@@H]3C(=O)O [Gibberelic acid (GA), gibberellic acid (gibberellin A3)]
1st Leaf % Activity (Phakopsora pachyrhizi [3]; [5]): 0.0%
1st Leaf % Disease (Phakopsora pachyrhizi [3]; [5]): 88.9%
2nd Leaf % Activity (Phakopsora pachyrhizi [3]; [5]): 32.4%
2nd Leaf % Disease (Phakopsora pachyrhizi [3]; [5]): 48.3%
1st Leaf % Activity (Phakopsora pachyrhizi [3]; [6]): 0.0%
1st Leaf % Disease (Phakopsora pachyrhizi [3]; [6]): 87.2%
2nd Leaf % Activity (Phakopsora pachyrhizi [3]; [6]): 28.4%
2nd Leaf % Disease (Phakopsora pachyrhizi [3]; [6]): 51.1%
Germination % Emergence 6 DAS [1, 7]: 100%
Germination % Final Stand 11 DAS [1, 7]: 100%
Germination Count 6 DAS [1, 7]: 50
Germination Count 11 DAS [1, 7]: 50
Germination % Emergence 6 DAS [1, 8]: 96%
Germination % Final Stand 11 DAS [1, 8]: 96%
Germination Count 6 DAS [1, 8]: 48
Germination Count 11 DAS [1, 8]: 48
Germination % Emergence 6 DAS [2, 9]: 100%
Germination % Final Stand 11 DAS [2, 9]: 100%
Germination Count 6 DAS [2, 9]: 50
Germination Count 11 DAS [2, 9]: 50
Germination % Emergence 6 DAS [2, 10]: 98%
Germination % Final Stand 11 DAS [2, 10]: 98%
Germination Count 6 DAS [2, 10]: 49
Germination Count 11 DAS [2, 10]: 49
1st Leaf % Activity (Phakopsora pachyrhizi [4]; [5]): 0.0%
1st Leaf % Disease (Phakopsora pachyrhizi [4]; [5]): 87.8%
2nd Leaf % Activity (Phakopsora pachyrhizi [4]; [5]): 0.0%
2nd Leaf % Disease (Phakopsora pachyrhizi [4]; [5]): 71.1%
1st Leaf % Activity (Phakopsora pachyrhizi [4]; [6]): 0.0%
1st Leaf % Disease (Phakopsora pachyrhizi [4]; [6]): 82.8%
2nd Leaf % Activity (Phakopsora pachyrhizi [4]; [6]): 0.0%
2nd Leaf % Disease (Phakopsora pachyrhizi [4]; [6]): 68.9%
